For test [1], the target named is Platelet glycoprotein 4 (Rattus norvegicus) (UniProt Q07969). Kind of test: Displacement of photoactivated [125I]-Tyr-Bpa-Ala-hexarelin from CD36 in rat heart purified membranes.
Test [2] deals with Platelet glycoprotein 4 (Mus musculus) (UniProt Q08857). Kind of test: Modulation activity at CD36 in mouse RAW264.7 cells assessed as inhibition of TLR-2 agonist R-FSL-1-induced NO overproduction relative to control. It counts as cell-based. On the set-up: concentration or dose not given beside the values. The following applies: concentration not given here.
For test [3] the target is unchanged. The test can be described thus: Modulation activity at CD36 in mouse J774 cells assessed as promotion of cholesterol efflux at 100 nM pre-incubated for 17 hrs before apolipoprotein A-I addition for 4 hrs by fluorescent-labeled cholesterol kit based assay relative to control. The test is classed as cell-based.
Test [4] deals with Platelet glycoprotein 4 (Rattus norvegicus) (UniProt Q07969). The test can be described thus: Displacement of photoactivated [125I]-Tyr-Bpa-Ala-hexarelin from CD36 in rat heart purified membranes relative to control. The test is classed as cell membranes.

Calls of active or inactive are those of the source. The calls are words filed in the database; no cut-off is given here.

Platelet glycoprotein 4 (Mus musculus), sequence (Q08857 whole entry): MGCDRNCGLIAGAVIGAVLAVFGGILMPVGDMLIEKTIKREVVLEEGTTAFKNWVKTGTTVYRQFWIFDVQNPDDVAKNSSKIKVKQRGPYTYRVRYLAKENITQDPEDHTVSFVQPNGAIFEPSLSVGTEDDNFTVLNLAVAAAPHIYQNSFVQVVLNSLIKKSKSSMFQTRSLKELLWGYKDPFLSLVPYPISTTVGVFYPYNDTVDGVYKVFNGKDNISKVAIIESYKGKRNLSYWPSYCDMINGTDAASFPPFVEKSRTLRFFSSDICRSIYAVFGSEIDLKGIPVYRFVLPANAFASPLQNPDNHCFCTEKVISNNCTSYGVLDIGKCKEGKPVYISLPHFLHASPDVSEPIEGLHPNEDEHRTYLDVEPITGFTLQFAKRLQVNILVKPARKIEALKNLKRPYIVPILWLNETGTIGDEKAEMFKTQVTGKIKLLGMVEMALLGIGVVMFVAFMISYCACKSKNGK
Platelet glycoprotein 4 (Rattus norvegicus), sequence (Q07969 whole entry): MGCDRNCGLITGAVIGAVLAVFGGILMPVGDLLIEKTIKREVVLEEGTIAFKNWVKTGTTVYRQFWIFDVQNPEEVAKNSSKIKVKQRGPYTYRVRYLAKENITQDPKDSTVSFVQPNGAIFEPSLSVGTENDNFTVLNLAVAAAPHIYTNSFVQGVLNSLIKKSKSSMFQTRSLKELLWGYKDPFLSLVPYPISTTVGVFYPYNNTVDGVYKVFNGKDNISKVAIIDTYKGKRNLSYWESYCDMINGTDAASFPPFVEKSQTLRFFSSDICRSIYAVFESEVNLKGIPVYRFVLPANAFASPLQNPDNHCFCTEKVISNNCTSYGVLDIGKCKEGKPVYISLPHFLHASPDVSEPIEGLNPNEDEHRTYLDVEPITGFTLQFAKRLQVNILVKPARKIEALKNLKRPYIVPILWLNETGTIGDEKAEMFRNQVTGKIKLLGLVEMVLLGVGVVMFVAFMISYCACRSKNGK

Usually IC50 stands for the midpoint of a concentration-inhibition curve. What is called inhibition is the drop in the measured response relative to a control, in per cent. Consider `C=CCN1CC#CCN(NC(=O)[C@H](C)N)C(=O)N[C@@H](C)C(=O)N[C@@H](Cc2c[nH]c3ccccc23)C(=O)N[C@H](Cc2ccccc2)C(=O)N[C@H](C(N)=O)CCCC1`, for which the 50% inhibitory concentration (IC50) in test [1] was 240 nM. The inhibition in test [2] was 29%. In addition, the Activity in test [3] was determined as 6%.
`C=CCN1CC#CCN(NC(=O)[C@H](C)N)C(=O)N[C@H](Cc2c[nH]c3ccccc23)C(=O)N[C@@H](C)C(=O)N[C@@H](Cc2c[nH]c3ccccc23)C(=O)N[C@H](Cc2ccccc2)C(=O)N[C@H](C(N)=O)CCCC1`: the IC50 in test [1] stood at 80 nM. Moreover, the inhibition in test [2] stood at 45%. The Activity in test [3] came out at 11%.
`C=CCN1CC#CCN(NC(=O)[C@H](C)NC(C)=O)C(=O)N[C@H](Cc2c[nH]c3ccccc23)C(=O)N[C@@H](C)C(=O)N[C@@H](Cc2c[nH]c3ccccc23)C(=O)N[C@H](Cc2ccccc2)C(=O)N[C@H](C(N)=O)CCCC1` yielded an IC50 in test [1] of 670 nM. In addition, the inhibition in test [2] was 20%. For the same compound, the Activity in test [3] stood at 17%.
Taken in the same sequence, the figures for `C=CCN1CC#CC[C@@H](NC(=O)[C@H](C)N)C(=O)N[C@H](Cc2c[nH]c3ccccc23)C(=O)N[C@@H](C)C(=O)N[C@@H](Cc2c[nH]c3ccccc23)C(=O)N[C@H](Cc2ccccc2)C(=O)N[C@H](C(N)=O)CCCC1` were 1040 nM, 10% and 6%.
Taken in the same sequence, the figures for `C=CCN1CC#CC[C@H](NC(=O)[C@H](C)N)C(=O)N[C@H](Cc2c[nH]c3ccccc23)C(=O)N[C@@H](C)C(=O)N[C@@H](Cc2c[nH]c3ccccc23)C(=O)N[C@H](Cc2ccccc2)C(=O)N[C@H](C(N)=O)CCCC1` were 660 nM, 17% and 7%.
In turn, `C=CCN1CC#CC[C@@H](NC(=O)[C@H](C)N)C(=O)N[C@@H](C)C(=O)N[C@@H](Cc2c[nH]c3ccccc23)C(=O)N[C@H](Cc2ccccc2)C(=O)N[C@H](C(N)=O)CCCC1` showed a half-maximal inhibitory concentration (IC50) in test [1] of 3320 nM. The inhibition in test [2] turned out to be 9%. Moreover, the Activity in test [3] amounted to 6%.
Turning to `C=CCN1CC#CCN(N)C(=O)N[C@H](Cc2c[nH]c3ccccc23)C(=O)N[C@@H](C)C(=O)N[C@@H](Cc2c[nH]c3ccccc23)C(=O)N[C@H](Cc2ccccc2)C(=O)N[C@H](C(N)=O)CCCC1`, the inhibition in test [2] amounted to 18%. Moreover, the inhibition result in test [4] was “inactive”.
With `C=CCN1CC#CC[C@H](NC(=O)[C@H](C)N)C(=O)N[C@@H](C)C(=O)N[C@@H](Cc2c[nH]c3ccccc23)C(=O)N[C@H](Cc2ccccc2)C(=O)N[C@H](C(N)=O)CCCC1`, the IC50 in test [1] was 1470 nM. In test [2], the inhibition worked out at 16%. For the same compound, the Activity in test [3] came to 13%.

The values above are taken from ChEMBL document CHEMBL4414665, “Dynamic Chirality in the Mechanism of Action of Allosteric CD36 Modulators of Macrophage-Driven Inflammation” (J Med Chem, 2019).
